Inhibition and activity data for eight compounds are collected here from patent publication US11242337B2, “Compounds useful for treating gastrointestinal tract disorders” (Ardelyx, Inc., priority 2017, dated 2022).

The subject of experiment [1] is human ileum monolayer culture. Briefly: Sustained inhibition of apical acid secretion in human organoid monolayer cell cultures (ileum). Conditions: Homo sapiens, 48 h; 1 μM apical, dosed day 6, apical media pH day 8, vs DMSO. Type of experiment: cell-based. The method, boiled down:
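Human ileum organoid-derived Transwell monolayers, differentiated with ENRA from day 3, received 1 μM compound apically on day 6 (DMSO vehicle, duplicate wells). Apical medium pH was measured by electrode on day 8 as a readout of sustained NHE3-mediated proton secretion inhibition.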

In experiment [2] the test system is human duodenum monolayer culture. The experiment can be described thus: Increased trans-epithelial resistance (TEER) in human organoid monolayer cell cultures. The conditions noted are these: 1 μM apical, baseline corrected. Type of experiment: cell-based. Here is the method: Basal media (B consisted of advanced DMEM/F12 containing 10 mM HEPES (Invitrogen, 15630-080), 1:100 Glutamax (Invitrogen, 35050-061), and 1:100 penicillin/streptomycin (Invitrogen, 15140-122). Supplemented basal media (SBM) contained 1:100 N2 (Invitrogen, 17502-048), 1:50 B27 (Invitrogen, 12587-010), 1 mM N-acetylcysteine (Sigma, A9165), and 10 nM [Leu15]-gastrin I (Sigma, G9145). Growth factors used included 50 ng per mL mouse EGF (Peprotech, 315-09), 100 ng per mL mouse noggin (Peprotech, 250-38), 500 ng per mL human R-spondin 1 (R&D, 4645-RS), 100 ng per mL mouse Wnt-3a (R&D, 1324-WN), 20 μM Y-27632 (Tocris, 1254), 10 mM nicotinamide (Sigma, N0636), 500 nM A83-01 (Tocris, 2939), 10 μM SB202190 (Tocris, 1264). Transwells were 0.4 μm pore polyester membrane 24-well Transwell inserts (Corning). Cultures were incubated at 37° C. in 5% CO2.
Human duodenum organoids were cultured in WENRNAS (Wnt, EGF, noggin, R-spondin1, Nicotinamide, A83-01, SB202190) and typically grown for 7-12 days before being used to plate monolayer cultures. On day 0, organoid cultures embedded in Matrigel were treated with TrypLE Express to break organoids into small pieces and/or single cells. The cells were resuspended to 0.5×10^6 cells/mL in SBM containing WENRAY (Wnt, EGF, noggin, R-spondin1, A83-01, Y-27632). Following this step, 200 μL of cell suspension was plated into the apical side of a 24-well Transwell (100,000 cells/well) and 600 μL of SBM with WENRAY was added to the basolateral side. Duodenum cells were differentiated with ENA (EGF, noggin, A83-01) on day 3. The color of apical compartment turns from pink or orange to yellow due to the increase in NHE3 expression after differentiation.
Each human duodenum monolayer culture well was washed twice with fresh SBM on the apical side on day 6 or day 7 before dosing. All compound stocks were 10 mM dissolved DMSO. Each compound stock was individually mixed with fresh SBM to reach final compound concentration 1 μM and dosed only on the apical side of the monolayer (total volume 200 μl). DMSO at the equivalent concentration was used as the vehicle control. Duplicate wells were dosed for each compound. Transepithelial electrical resistance (TEER) was used as a quantitative technique to measure of tight junction permeability. TEER values were recorded (MERS00002, Millipore) before dosing and 30 mins and 1 hr after dosing for all wells. Each of the duplicate TEER values following treatment were corrected for the individual well baseline TEER. Baseline corrected TEER for each example compound was compared to the average of the DMSO wells and expressed as a percent TEER of vehicle control.

The mark [3] stands for this setting: 1 hr after dosing, read-out: TEER at 60 minutes (% of Vehicle).
Setting [4] is: 0.5 h, 30 mins after dosing, read-out: TEER at 30 minutes (% of Vehicle).

Like-named read-outs stand apart in the source and are kept apart here.

In experiment [1], `N#Cc1cc(Cl)cc2c1C[C@H](N1CCNCC1)[C@H]2Oc1ccc(S(=O)(=O)NCCOCCOCCNC(=O)NCCCCNC(=O)NCCOCCOCCNS(=O)(=O)c2ccc(O[C@H]3c4cc(Cl)cc(C#N)c4C[C@@H]3N3CCNCC3)c(F)c2)cc1F` [Example 43, 3-[2-(2-[2-[(4-[[(1S,2S)-6-Chloro-4-cyano-2-(piperazin-1-yl)-2,3-dihydro-1H-inden-1-yl]oxy]-3-fluorobenzene)sulfonamido]ethoxy]ethoxy)ethyl]-1-[4-([[2-(2-[2-[(4-[[(1S,2S)-6-chloro-4-cyano-2-(piperazin-1-yl)-2,3-dihydro-1H-inden-1-yl]oxy]-3-fluorobenzene)sulfonamido]ethoxy]ethoxy)ethyl]carbamoyl]amino)butyl]urea; bis(trifluoroacetic acid)] displayed an inhibition at 1 µM of 50 to 70%. For the same compound, the activity at 1 µM in experiment [2] (setting [3]) and in experiment [2] (setting [4]) was 100 to 130% each time.

Consider `Cc1cc(S(=O)(=O)N[C@H]2CCN(CCOCCNC(=O)NCCCCNC(=O)NCCOCCN3CC[C@H](NS(=O)(=O)c4ccc(O[C@H]5c6cc(Cl)cc(Cl)c6C[C@@H]5N(C)C)c(C)c4)C3=O)C2=O)ccc1O[C@H]1c2cc(Cl)cc(Cl)c2C[C@@H]1N(C)C` [Example 91, 1-(2-[2-[(3S)-3-[(4-[[(1S,2S)-4,6-Dichloro-2-(dimethylamino)-2,3-dihydro-1H-inden-1-yl]oxy]-3-methylbenzene)sulfonamido]-2-oxopyrrolidin-1-yl]ethoxy]ethyl)-3-(4-[[(2-[2-[(3S)-3-[(4-[[(1S,2S)-4,6-dichloro-2-(dimethylamino)-2,3-dihydro-1H-inden-1-yl]oxy]-3-methylbenzene)sulfonamido]-2-oxopyrrolidin-1-yl]ethoxy]ethyl)carbamoyl]amino]butyl)urea], for which the inhibition at 1 µM in experiment [1] fell in the range of 50 to 70%. The activity at 1 µM in experiment [2] (setting [3]) and in experiment [2] (setting [4]) was 100 to 130% each time.

As to `O=C(NCCCCNC(=O)NCCOCCN1CC[C@@H](NS(=O)(=O)c2ccc(O[C@H]3c4cc(Cl)cc(Cl)c4C[C@@H]3N3CCNCC3)c(F)c2)C1)NCCOCCN1CC[C@@H](NS(=O)(=O)c2ccc(O[C@H]3c4cc(Cl)cc(Cl)c4C[C@@H]3N3CCNCC3)c(F)c2)C1` [Example 105, 4-([(1S,2S)-4,6-Dichloro-2-(piperazin-1-yl)-2,3-dihydro-1H-inden-1-yl]oxy)-N—[(R)-1-(20-[(R)-3-([4-([(1S2S)-4,6-dichloro-2-(piperazin-1-yl)-2,3-dihydro-1H-inden-1-yl]oxy)-3-fluorophenyl]sulfonamido)pyrrolidin-1-yl]-7,14-dioxo-3,18-dioxa-6,8,13,15-tetraazaicosyl)pyrrolidin-3-yl]-3-fluorobenzenesulfonamide; tetra(trifluoroacetate)], the inhibition at 1 µM in experiment [1] is over 70%. The activity at 1 µM in experiment [2] (setting [3]) and in experiment [2] (setting [4]) was over 130% in each case.

In experiment [1], `O=C(NCCCCNC(=O)NCCOCCN1CC[C@H](NS(=O)(=O)c2ccc(O[C@H]3c4cc(Cl)cc(Cl)c4C[C@@H]3N3CCNCC3)c(F)c2)C1)NCCOCCN1CC[C@H](NS(=O)(=O)c2ccc(O[C@H]3c4cc(Cl)cc(Cl)c4C[C@@H]3N3CCNCC3)c(F)c2)C1` [Example 106, 4-([(1S,2S)-4,6-Dichloro-2-(piperazin-1-yl)-2,3-dihydro-1H-inden-1-yl]oxy)-N—[(S)-1-(20-[(S)-3-([4-([(1S,2S)-4,6-dichloro-2-(piperazin-1-yl)-2,3-dihydro-1H-inden-1-yl]oxy)-3-fluorophenyl]sulfonamido)pyrrolidin-1-yl]-7,14-dioxo-3,18-dioxa-6,8,13,15-tetraazaicosyl)pyrrolidin-3-yl]-3-fluorobenzenesulfonamide; tetra(trifluoroacetate)] gave an inhibition at 1 µM of over 70%. Further, the activity at 1 µM in experiment [2] (setting [3]) and in experiment [2] (setting [4]) was over 130% in each case.

Take `N#Cc1cc(Cl)cc2c1C[C@H](N1CCNCC1)[C@H]2Oc1ccc(S(=O)(=O)N[C@H]2CCN(CCOCCNC(=O)NCCCCNC(=O)NCCOCCN3CC[C@H](NS(=O)(=O)c4ccc(O[C@H]5c6cc(Cl)cc(C#N)c6C[C@@H]5N5CCNCC5)cc4)C3)C2)cc1` [Example 107, 4-([(1S,2S)-6-Chloro-4-cyano-2-(piperazin-1-yl)-2,3-dihydro-1H-inden-1-yl]oxy)-N—[(S)-1-(20-[(S)-3-([4-([(1S,2S)-6-chloro-4-cyano-2-(piperazin-1-yl)-2,3-dihydro-1H-inden-1-yl]oxy)phenyl]sulfonamido)pyrrolidin-1-yl]-7,14-dioxo-3,18-dioxa-6,8,13,15-tetraazaicosyl)pyrrolidin-3-yl]benzenesulfonamide; tetra(trifluoroacetate)]: in experiment [1], the inhibition at 1 µM was over 70%. Moreover, the values for the activity at 1 µM in experiment [2] (setting [3]) and in experiment [2] (setting [4]) were 100 to 130% and over 130%, respectively.

As to `N#Cc1cc(Cl)cc2c1C[C@H](N1CCNCC1)[C@H]2Oc1ccc(S(=O)(=O)N[C@H]2CCN(CCOCCNC(=O)NCCCCNC(=O)NCCOCCN3CC[C@H](NS(=O)(=O)c4ccc(O[C@H]5c6cc(Cl)cc(C#N)c6C[C@@H]5N5CCNCC5)c(F)c4)C3)C2)cc1F` [Example 110, 4-([(1S,2S)-6-Chloro-4-cyano-2-(piperazin-1-yl)-2,3-dihydro-1H-inden-1-yl]oxy)-N—[(S)-1-(20-[(S)-3-[(4-([(1S,2S)-6-chloro-4-cyano-2-(piperazin-1-yl)-2,3-dihydro-1H-inden-1-yl]oxy)-3-fluorophenyl)sulfonamide)pyrrolidin-1-yl]-7,14-dioxo-3,18-dioxa-6,8,13,15-tetraazaicosyl)pyrrolidin-3-yl]-3-fluorobenzenesulfonamide; tetra(trifluoroacetate)], in experiment [1], the inhibition at 1 µM is over 70%. The activity at 1 µM is 100 to 130% in experiment [2] (setting [3]) and over 130% in experiment [2] (setting [4]).

The compound `N#Cc1cc(Cl)cc2c1C[C@H](N1CCNCC1)[C@H]2Oc1ccc(S(=O)(=O)NC2CCN(C(=O)CCCNC(=O)NCCCCNC(=O)NCCCC(=O)N3CCC(NS(=O)(=O)c4ccc(O[C@H]5c6cc(Cl)cc(C#N)c6C[C@@H]5N5CCNCC5)cc4)CC3)CC2)cc1` [Example 115] had an inhibition at 1 µM in experiment [1] of over 70%. The activity at 1 µM in experiment [2] (setting [3]) and in experiment [2] (setting [4]) was 100 to 130% in each case.

On to `N#Cc1cc(Cl)cc2c1C[C@H](N1CCCNCC1)[C@H]2Oc1ccc(S(=O)(=O)N[C@H]2CCN(CCOCCNC(=O)NCCCCNC(=O)NCCOCCN3CC[C@H](NS(=O)(=O)c4ccc(O[C@H]5c6cc(Cl)cc(C#N)c6C[C@@H]5N5CCCNCC5)cc4)C3)C2)cc1` [Example 126, 4-([(1S,2S)-6-Chloro-4-cyano-2-(1,4-diazepan-1-yl)-2,3-dihydro-1H-inden-1-yl]oxy)-N—[(S)-1-(20-[(S)-3-([4-([(1S,2S)-6-chloro-4-cyano-2-(1,4-diazepan-1-yl)-2,3-dihydro-1H-inden-1-yl]oxy)phenyl]sulfonamido)pyrrolidin-1-yl]-7,14-dioxo-3,18-dioxa-6,8,13,15-tetraazaicosyl)pyrrolidin-3-yl]benzenesulfonamide], for which, in experiment [1], the inhibition at 1 µM is under 50%. Further, the activity at 1 µM in experiment [2] (setting [3]) and in experiment [2] (setting [4]) was 100 to 130% in each case.
